Experimental data: paper PMC12609579, “Acute Myeloid Leukemia: A Key Role of DGKα and DGKζ in Cell Viability” (Cells, 2025)

What was measured:
[1] = system: HL-60 cells; design: method as in PMID 37509516; details: cited from earlier work; for effect on viability: HL-60; for IC50: HL-60, 24 h, read-out: IC50 (cytotoxicity)
[2] = system: HEL cells; design: method as in PMID 37509516; details: cited from earlier work; for IC50: 24 h, read-out: IC50 (cytotoxicity)
[3] = system: AML cell lines (HL-60, HEL, THP-1, K562); test: alamarBlue cell viability assay, AML cell line panel (serotonin receptor inhibitors); assay type: cell-based, human; details: 24 h; for effects on AML cell viability: increasing concentrations
Protocol: The alamarBlue assay was performed to assess cell viability in presence of chemical inhibitors. A total of 50,000 cells per well were seeded in a 96-wells plate in a volume of 100 μL of complete medium together with 10 μL of 10× concentrated inhibitor solution and then incubated for either 24 or 72 h. Each experimental condition was performed in technical quadruplicates, using cells treated with equal amounts of DMSO vehicle as control and medium alone as background. After incubation, alamarBlue was added to each well at a final concentration of 0.15 mg/mL. The fluorescence of the samples was measured 24 h later using a Spark 10 M Multimode Plate Reader (Tecan, Switzerland) with excitation and emission wavelengths of 535 nm and 590 nm, respectively. For dose–response curve fitting, fluorescence values were normalized according to the following formula:Viability (%) = [(sample mean fluorescence)/(DMSO control mean fluorescence)] ∗ 100 […]
Supplementary figure S3: Effects of serotonin receptor inhibitors on AML cell lines viability.
AML cells were treated with increasing concentration of the indicated inhibitor for 24 hours followed by alamarBlue viability assay for additional 24 hours. Experiments were run in quadruplicates. Data are the mean ± SEM of 4 or more experiments interpolated as [inhibitor] vs. % viability. […]

[4] = biological target: serotonin 5-HT2A receptor; details: cited from earlier work

What does the source list for Cc1ccc2c(C(=O)CN3CCN(C(=O)c4ccco4)CC3)c(C)[nH]c2c1 [AMB639752]?
effect on viability [1]: did not significantly affect viability; effect on viability [2]: did not significantly affect viability

With O=C1/C(=C/C=C/c2ccco2)SC(=S)N1NS(=O)(=O)c1ccccc1 [CU-3] as the compound, how does the effect on viability [1] read?
Its effect on viability is “did not significantly affect viability”.

What about the effect on viability [2] of the same compound?
Its effect on viability is “did not significantly affect viability”.

With Cc1nc2sccn2c(=O)c1CCN1CCC(=C(c2ccccc2)c2ccc(F)cc2)CC1 [R59022] as the compound, how does the IC50 [1] read?
The IC50 was 32 µM.

What about the IC50 [2] of the same compound?
The IC50 was 49 µM.

For O=c1c2ccccc2[nH]c(=S)n1CCN1CCC(=C(c2ccc(F)cc2)c2ccc(F)cc2)CC1 [R59949], which IC50 [1] is on record?
The IC50 was 72 µM.

And the IC50 [2]?
Its IC50 is 80 µM.

With O=C(c1ccc(F)cc1)C1CCN(CCn2c(=S)[nH]c3ccccc3c2=O)CC1 [altanserin] as the compound, how does the “effects on AML cell viability” value [3] read?
The value was “negligible effects”.

And the Ki [4]?
The Ki was 0.00013 µM.

Which results are given for CCN(CC)CCNC(=O)c1cc(Cl)c(N)cc1OC [metoclopramide]?
highest reduction in viability ([3]; 100 μM): 11%; effects on AML cell viability [3]: negligible effects

For Cc1nc2n(c(=O)c1CCN1CCC(c3noc4cc(F)ccc34)CC1)CCCC2 [risperidone], which “effects on AML cell viability” value [3] is on record?
The value was “negligible effects”.
